# Data published in patent US20100222349A1, “QUINOLINE DERIVATIVES USED TO TREAT INFLAMMATORY AND ALLERGIC DISEASES” (Glaxo Group Limited, priority 2007, published 2010).
# Target: T1, histamine H3 receptor (Homo sapiens, UniProt Q9Y5N1)
# T1 construct: expressed in transfected cells; host or cells: CHO K1 cells with pSwitch/pGeneH3 (GeneSwitch, mifepristone-induced), clone 3H3; membrane preparation
# Assay: Histamine H3 functional antagonist assay (GTPγS, membranes)
# Format: biochemical
# Settings: CHO K1 membranes, [35S]-GTPγS, histamine at EC80; read-out: average pKi (pKb) at H3 (converted)
# Method: The histamine H3 cDNA is isolated from its holding vector, pcDNA3.1 TOPO (InVitrogen), by restriction digestion of plasmid DNA with the enzymes BamH1 and Not-1 and is ligated into the inducible expression vector pGene (InVitrogen) digested with the same enzymes. The GeneSwitchTM system (a system where in transgene expression is switched off in the absence of an inducer and switched on in the presence of an inducer) is performed as described in U.S. Pat. Nos. 5,364,791; 5,874,534; and 5,935,934. Ligated DNA is transformed into competent DH5α E. coli host bacterial cells and is plated onto Luria Broth (LB) agar containing ZeocinTM (an antibiotic which allows the selection of cells expressing the sh ble gene which is present on pGene and pSwitch) at 50 μgml^-1. Colonies containing the re-ligated plasmid are identified by restriction analysis. DNA for transfection into mammalian cells is prepared from 250 ml cultures of the host bacterium containing the […]3 plasmid and is isolated using a DNA preparation kit (Qiagen Midi-Prep) as per manufacturers guidelines (Qiagen). CHO K1 cells previously transfected with the pSwitch regulatory plasmid (InVitrogen) are seeded at 2×10^6 cells per T75 flask in Complete Medium, containing Hams F12 (GIBCOBRL, Life Technologies) medium supplemented with 10% v/v dialysed foetal bovine serum, L-glutamine, and hygromycin (100 μgml^-1), 24 h prior to use. Plasmid DNA is transfected into the cells using Lipofectamine plus according to the manufacturer's guidelines (InVitrogen). 48 h post transfection, cells are placed into complete medium supplemented with 500 μgml^-1 ZeocinTM. 10-14 days post selection, 10 nM Mifepristone (InVitrogen) is added to the culture medium to induce the expression of the receptor. 18 h post induction, cells are detached from the flask using ethylenediamine tetra-acetic acid (EDTA; 1:5000; InVitrogen), following several washes with PBS, pH 7.4 and are resuspended in Sorting Medium containing Minimum Essential Medium (MEM), without phenol red, and are supplemented with Earles salts and 3% Foetal Clone II (Hyclone). Approximately 1×10^7 cells are examined for receptor expression by staining with a rabbit polyclonal antibody, 4a, raised against the N-terminal domain of the histamine H3 receptor, are incubated on ice for 60 min, followed by two washes in sorting medium. Receptor bound antibody is detected by incubation of the cells for 60 min on ice with a goat anti rabbit antibody, conjugated with Alexa 488 fluorescence marker (Molecular Probes). Following two further washes with Sorting Medium, cells are filtered through a 50 μm FilconTM (BD Biosciences) and then are analysed on a FACS Vantage SE Flow Cytometer fitted with an Automatic Cell Deposition Unit. Control cells are non-induced cells treated in an analogous manner. Positively stained cells are sorted as single cells into 96-well plates, containing Complete Medium containing 500 μgml^-1 ZeocinTM and are allowed to expand before reanalysis for receptor expression via antibody and ligand binding studies. One clone, 3H3, is selected for membrane preparation. All steps of the protocol are carried out at 4° C. and with pre-cooled reagents. The cell pellet is resuspended in 10 volumes of homogenisation buffer (50 mM N-2-hydroxyethylpiperazine-N'-2-ethanesulfonic acid (HEPES), 1 mM ethylenediamine tetra-acetic acid (EDTA), pH 7.4 with KOH, supplemented with 10^-6 M leupeptin (acetyl-leucyl-leucyl-arginal; Sigma L2884), 25 μgml^-1 bacitracin (Sigma B0125), 1 mM phenylmethylsulfonyl fluoride (PMSF) and 2×10^-6 M pepstain A (Sigma)). The cells are then homogenised by 2×15 sec bursts in a 1 L glass Waring blender, followed by centrifugation at 500 g for 20 min. The supernatant is then spun at 48,000 g for 30 min. The pellet is resuspended in homogenisation buffer (4× the volume of the original cell pellet) by vortexing for 5 sec, followed by homogenisation in a Dounce homogeniser (10-15 strokes). […]
# T1 sequence (Q9Y5N1 whole entry, species assumed): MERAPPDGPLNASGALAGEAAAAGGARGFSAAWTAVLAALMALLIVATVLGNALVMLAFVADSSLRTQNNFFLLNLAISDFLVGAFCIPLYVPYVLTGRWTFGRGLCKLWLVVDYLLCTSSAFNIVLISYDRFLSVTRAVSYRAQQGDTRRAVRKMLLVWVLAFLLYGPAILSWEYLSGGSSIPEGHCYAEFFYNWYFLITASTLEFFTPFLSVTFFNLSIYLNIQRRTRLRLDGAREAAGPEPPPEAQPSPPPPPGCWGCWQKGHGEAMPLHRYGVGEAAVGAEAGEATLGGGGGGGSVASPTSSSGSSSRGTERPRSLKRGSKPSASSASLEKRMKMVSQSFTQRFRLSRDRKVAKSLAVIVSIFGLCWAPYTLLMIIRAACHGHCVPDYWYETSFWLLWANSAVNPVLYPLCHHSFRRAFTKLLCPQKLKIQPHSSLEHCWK
row,Ki [nM],Compound
1,> 316,"CCCCc1cc(OC2CCN(CC3CCN(C(C)=O)CC3)CC2)c2ncccc2c1 [Example 1, 8-({1-[(1-Acetyl-4-piperidinyl)methyl]-4-piperidinyl}oxy)-6-butylquinoline]"
2,> 316,"CCCCc1cc(OC2CCN(CCC3CCN(C(=O)CC)CC3)CC2)c2ncccc2c1 [Example 4, 6-Butyl-8-({1-[2-(1-propanoyl-4-piperidinyl)ethyl]-4-piperidinyl}oxy)quinoline]"
3,> 316,"CCCCc1cc(OC2CCN(CC3CCCNC3=O)CC2)c2ncccc2c1 (stereo not shown) [Example 5, 3-({4-[(6-butyl-8-quinolinyl)oxy]-1-piperidinyl}methyl)-2-piperidinone]"
4,> 3160,"CCCCc1cc(OC2CCN(CC(=O)NCCCOC)CC2)c2ncccc2c1 [Example 8, 2-{4-[(6-butyl-8-quinolinyl)oxy]-1-piperidinyl}-N-[3-(methyloxy)propyl] acetamide]"
5,> 3160,"CCCCc1cc(OC2CCN(CC(=O)N(CC)CC)CC2)c2ncccc2c1 [Example 9, 2-{4-[(6-butyl-8-quinolinyl)oxy]-1-piperidinyl}-N,N-diethylacetamide]"
6,> 316,"CCCCc1cc(OC2CCN(CC(=O)NCCC)CC2)c2ncccc2c1 [Example 10, 2-{4-[(6-butyl-8-quinolinyl)oxy]-1-piperidinyl}-N-propylacetamide]"

# The next lines start with the compound.
row,Compound,Ki [nM]
1,"CCCCc1cc(OC2CCN(CC3CCN(C(=O)CC)CC3)CC2)c2ncccc2c1 [Example 2, 6-Butyl-8-({1-[(1-propanoyl-4-piperidinyl)methyl]-4-piperidinyl}oxy)quinoline]",> 316
2,"CCCCc1cc(OC2CCN(CCC3CCN(C(C)=O)CC3)CC2)c2ncccc2c1 [Example 3, 8-({1-[2-(1-Acetyl-4-piperidinyl)ethyl]-4-piperidinyl}oxy)-6-butylquinoline]",> 316
3,"CCCCc1cc(OC2CCN(CCCC(=O)NC(C)(C)C)CC2)c2ncccc2c1 [Example 6, 4-{4-[(6-Butyl-8-quinolinyl)oxy]-1-piperidinyl}-N-(1,1-dimethylethyl)butanamide]",> 316
4,"CCCCc1cc(OC2CCN(CCC(=O)N(CC)CC)CC2)c2ncccc2c1 [Example 7, 3-{4-[(6-Butyl-8-quinolinyl)oxy]-1-piperidinyl}-N,N-diethylpropanamide]",> 316
5,"CCCCc1cc(OC2CCN(CC(=O)NCCOC)CC2)c2ncccc2c1 [Example 11, 2-{4-[(6-butyl-8-quinolinyl)oxy]-1-piperidinyl}-N-[2-(methyloxy)ethyl] acetamide]",> 3160

# Target: T2, human H1 receptor (Homo sapiens, UniProt P35367)
# T2 construct: expressed in transfected cells
# Assay: Histamine H1 functional antagonist assay: determination of functional pKi values (FLIPR)
# Format: cell-based
# Settings: CHO cells expressing human H1 receptor, histamine at EC80, read-out: average pKi (pKb) at H1 (converted)
# Method: The human H1 receptor is cloned using known procedures described in the literature [Biochem. Biophys. Res. Commun., 201(2):894 (1994)]. Chinese hamster ovary (CHO) cells stably expressing the human H1 receptor are generated according to known procedures described in the literature [Br. J. Pharmacol., 117(6):1071 (1996)]. The histamine H1 cell line is seeded into non-coated black-walled clear bottom 384-well tissue culture plates in alpha minimum essential medium (Gibco/Invitrogen, cat no. 22561-021), supplemented with 10′)/0 dialysed foetal calf serum (Gibco/Invitrogen cat no. 12480-021) and 2 mM L-glutamine (Gibco/Invitrogen cat no 25030-024) and is maintained overnight at 5% CO2, 37° C. Excess medium is removed from each well to leave 10 μl. 30 μl loading dye (250 μM Brilliant Black, 2 μM Fluo-4 diluted in Tyrodes buffer+probenecid (145 mM NaCl, 2.5 mM KCl, 10 mM HEPES, 10 mM D-glucose, 1.2 mM MgCl2, 1.5 mM CaCl2, 2.5 mM probenecid, pH adjusted to 7.40 with NaOH 1.0 M)) is added to each well and the plates are incubated for 60 min at 5% CO2, 37° C. 10 μl of test compound, diluted to the required concentration in Tyrodes buffer+probenecid (or 10 μl Tyrodes buffer+probenecid as a control) is added to each well and the plate is incubated for 30 min at 37° C., 5% CO2. The plates are then placed into a FLIPR™(Molecular Devices, UK) to monitor cell fluorescence (λex=488 nm, λEM=540 nm) in the manner described in Sullivan et al., (In: Lambert DG (ed.), Calcium Signaling Protocols, New Jersey: Humana Press, 1999, 125-136) before and after the addition of 10 μl histamine at a concentration that results in the final assay concentration of histamine being EC80. Functional antagonism is indicated by a suppression of histamine induced increase in fluorescence, as measured by the FLIPR™ system (Molecular Devices). By means of concentration effect curves, functional affinities are determined using standard pharmacological mathematical analysis.
# T2 sequence (P35367 whole entry): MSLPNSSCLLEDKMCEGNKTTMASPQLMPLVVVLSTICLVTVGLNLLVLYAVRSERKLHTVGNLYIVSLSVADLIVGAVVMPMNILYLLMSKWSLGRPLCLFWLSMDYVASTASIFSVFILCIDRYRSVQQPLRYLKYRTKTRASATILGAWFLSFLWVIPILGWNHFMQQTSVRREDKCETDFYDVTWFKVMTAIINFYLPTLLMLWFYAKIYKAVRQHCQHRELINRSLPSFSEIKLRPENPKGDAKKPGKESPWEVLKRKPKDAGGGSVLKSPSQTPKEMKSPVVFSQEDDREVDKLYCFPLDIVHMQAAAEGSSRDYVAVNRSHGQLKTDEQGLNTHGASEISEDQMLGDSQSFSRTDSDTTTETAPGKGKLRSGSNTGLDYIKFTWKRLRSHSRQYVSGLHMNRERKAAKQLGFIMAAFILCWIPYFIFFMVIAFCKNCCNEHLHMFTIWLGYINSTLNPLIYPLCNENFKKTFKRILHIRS
row,Ki [nM],Compound
1,< 100,"CCCCc1cc(OC2CCN(CC3CCN(C(C)=O)CC3)CC2)c2ncccc2c1 [Example 1, 8-({1-[(1-Acetyl-4-piperidinyl)methyl]-4-piperidinyl}oxy)-6-butylquinoline]"
2,< 100,"CCCCc1cc(OC2CCN(CCC3CCN(C(=O)CC)CC3)CC2)c2ncccc2c1 [Example 4, 6-Butyl-8-({1-[2-(1-propanoyl-4-piperidinyl)ethyl]-4-piperidinyl}oxy)quinoline]"
3,< 10,"CCCCc1cc(OC2CCN(CC3CCCNC3=O)CC2)c2ncccc2c1 (stereo not shown) [Example 5, 3-({4-[(6-butyl-8-quinolinyl)oxy]-1-piperidinyl}methyl)-2-piperidinone]"
4,< 100,"CCCCc1cc(OC2CCN(CC(=O)NCCCOC)CC2)c2ncccc2c1 [Example 8, 2-{4-[(6-butyl-8-quinolinyl)oxy]-1-piperidinyl}-N-[3-(methyloxy)propyl] acetamide]"
5,< 100,"CCCCc1cc(OC2CCN(CC(=O)N(CC)CC)CC2)c2ncccc2c1 [Example 9, 2-{4-[(6-butyl-8-quinolinyl)oxy]-1-piperidinyl}-N,N-diethylacetamide]"
6,> 1000,"CCCCc1cc(OC2CCN(CC(=O)NCCC)CC2)c2ncccc2c1 [Example 10, 2-{4-[(6-butyl-8-quinolinyl)oxy]-1-piperidinyl}-N-propylacetamide]"

# Second part, the compound before the results:
row,Compound,Ki [nM]
1,"CCCCc1cc(OC2CCN(CC3CCN(C(=O)CC)CC3)CC2)c2ncccc2c1 [Example 2, 6-Butyl-8-({1-[(1-propanoyl-4-piperidinyl)methyl]-4-piperidinyl}oxy)quinoline]",< 100
2,"CCCCc1cc(OC2CCN(CCC3CCN(C(C)=O)CC3)CC2)c2ncccc2c1 [Example 3, 8-({1-[2-(1-Acetyl-4-piperidinyl)ethyl]-4-piperidinyl}oxy)-6-butylquinoline]",< 100
3,"CCCCc1cc(OC2CCN(CCCC(=O)NC(C)(C)C)CC2)c2ncccc2c1 [Example 6, 4-{4-[(6-Butyl-8-quinolinyl)oxy]-1-piperidinyl}-N-(1,1-dimethylethyl)butanamide]",< 10
4,"CCCCc1cc(OC2CCN(CCC(=O)N(CC)CC)CC2)c2ncccc2c1 [Example 7, 3-{4-[(6-Butyl-8-quinolinyl)oxy]-1-piperidinyl}-N,N-diethylpropanamide]",< 10
5,"CCCCc1cc(OC2CCN(CC(=O)NCCOC)CC2)c2ncccc2c1 [Example 11, 2-{4-[(6-butyl-8-quinolinyl)oxy]-1-piperidinyl}-N-[2-(methyloxy)ethyl] acetamide]",< 100
